We go through two compounds from article PMC5589751, “Synthesis, high-throughput screening and pharmacological characterization of β–lactam derivatives as TRPM8 antagonists” (Scientific Reports, 2017).

Several values for one entry are separate records, joined by “and”; a condition that tells them apart may be missing. Equal entries are not always repeated.

What all share (format): cell-based
One assay has as its target NaV1.6 (Homo sapiens, UniProt Q9UQD0). The assay is described as follows: Whole-cell patch clamp in cells expressing NaV1.6. The method, then: Electrophysiological recording was carried out 1–3 d after cells seeded. Membrane currents and voltages were recorded by patch clamp using the whole-cell configuration. For whole-cell recordings of HEK-hTRPV1 and HEK-TRPM8 cells, pipette solution contained (in mM) 140 CsCl, 5 EGTA, and 10 HEPES, adjusted to pH 7.2 with CsOH, and bath solution contained (in mM) 140 NaCl, 5 KCl, 2 CaCl2, 2 MgCl2, 5 EGTA, 10 D-glucose, 10 Mannitol and 10 HEPES, adjusted to pH 7.4 with NaOH. In calcium-free bath solution, CaCl2 was replaced with 5mM EGTA. For potassium and sodium recordings, CsCl was substituted by KCl and the pH was adjusted to pH 7.2 with KOH. Patch pipettes were prepared from thin-walled borosilicate glass capillaries (World Precision Instruments, Sarasota, FL, USA), pulled with a horizontal puller (P-97, Sutter Instruments, Novato, CA, USA) to have a tip resistance of 2–4 MΩ when filled with internal solutions. Data were sampled at 10 kHz (EPC10 amplifier with PatchMaster 2.53 software, HEKA Electronics, Lambrecht, Germany) and low-pass filtered at 3 kHz for analysis (PatchMaster 2.53 and GraphPad Prism 5, Graphpad Software, USA). The series resistance was <10 MΩ and to minimize voltage errors was compensated to 60–80%. All measurements were performed at 24–25°C. […]
(Patch clamp records ionic current or voltage across a cell membrane.)

Assay [1] has as its target T1, TRPM8 (Rattus norvegicus, UniProt Q8R455).
T1 construct: expressed in transfected cells
Briefly: Whole-cell patch clamp in TRPM8-expressing HEK-CR1 cells (menthol, voltage, cold). Conditions: for effect on menthol-evoked TRPM8 current at 1 µM / IC50: 500 µM menthol; for effect on cold-evoked TRPM8 current: cold 16 °C; for IC50: whole cell, ratio P2/P1, read-out: IC50, TRPM8 activity evoked by menthol (patch clamp); for Hill coefficient nH: dose-response against 500 µM menthol. The method, then:
As depicted in Fig. 3, perfusion with 500 µM menthol activated a large TRPM8 inward current at −60 mV (Fig. 3, control). […] The extent of TRPM8 activity shown in Fig. 3 corresponds to the ratio of channel activity between the second (P2) and the first (P1) pulses (ratio P2/P1) of menthol in order to take into account the channel desensitization (supplementary information Fig. 3S)[36], [37].
Left: Representative whole-cell voltage clamp recordings from TRPM8-expressing HEK-CR1 cells and compound 41 (A) and 45 (B). Voltage was held at −60 mV. Pre-application of compounds (20 s) was followed by co-application with 500 µM menthol (Control) for 20s. Current traces of different colours denote the different concentrations of compounds tested. Right: Dose response of compound 41 (A, red), 45 (B, blue) TRPM8 blocked activity. Solid line depicts the fitting to a Hill equation. Data are given as mean ± SEM, with n > 4 cells per data point.
Figure 4 Compound 41 abolished the voltage-evoked response on TRPM8. (A) Representative families of TRPM8 ionic currents in absence (Control) or presence of 1 μM 41 elicited with a voltage step protocol consisting of 200-ms depolarizing pulses from −60 to +120 mV in steps of 20 mV (inset). Holding potential −60 mV, time between pulses = 5s. (B) I-V relationships of TRPM8 channel activity in the absence (black) and presence of 1 µM 41 (red).
Figure 5 Compound 41 abolished the cold thermal activity response on TRPM8. Left: Representative families of TRPM8 ionic currents at +80mV in absence (A) or presence of 1µM 41 (B) activated by cold temperature (16 °C) obtained with a 300-ms ramp from −80 to +80 mV in intervals of 2 s during 3 minutes. Holding potential −60 mV. Right: I-V relationships of TRPM8 channel in basal conditions (a, black line), activated by cold in the absence (b, green line) and presence of 1 µM 41 (c, blue line). (C) Ratio currents between pulse 2 and pulse 1 induced by menthol in the absence (black bar) or in the presence (blue bar) of compound 41.
Electrophysiological recording was carried out 1–3 d after cells seeded. Membrane currents and voltages were recorded by patch clamp using the whole-cell configuration. For whole-cell recordings of HEK-hTRPV1 and HEK-TRPM8 cells, pipette solution contained (in mM) 140 CsCl, 5 EGTA, and 10 HEPES, adjusted to pH 7.2 with CsOH, and bath solution contained (in mM) 140 NaCl, 5 KCl, 2 CaCl2, 2 MgCl2, 5 EGTA, 10 D-glucose, 10 Mannitol and 10 HEPES, adjusted to pH 7.4 with NaOH. In calcium-free bath solution, CaCl2 was replaced with 5mM EGTA. For potassium and sodium recordings, CsCl was substituted by KCl and the pH was adjusted to pH 7.2 with KOH. Patch pipettes were prepared from thin-walled borosilicate glass capillaries (World Precision Instruments, Sarasota, FL, USA), pulled with a horizontal puller (P-97, Sutter Instruments, Novato, CA, USA) to have a tip resistance of 2–4 MΩ when filled with internal solutions. Data were sampled at 10 kHz (EPC10 amplifier with PatchMaster 2.53 software, HEKA Electronics, Lambrecht, Germany) and low-pass filtered at 3 kHz for analysis (PatchMaster 2.53 and GraphPad Prism 5, Graphpad Software, USA). The series resistance was <10 MΩ and to minimize voltage errors was compensated to 60–80%. All measurements were performed at 24–25°C. The temperature was adjusted with a water-cooled Peltier device placed at the inlet of the chamber and controlled by a feedback device (Automatic Temperature Controller TC-324B, Warner Instruments). Cold-sensitivity was investigated with a temperature decrease to 16–18 °C.

The target in assay [2] is T1, TRPM8. The assay is described as follows: Ca2+ microfluorography (Fluo-4 NW), menthol-induced Ca2+ signal in HEK-CR1-TRPM8 cells. Conditions: for % Block TRPM8 50 µM: 50 µM compound; for % Block TRPM8 50 µM / IC50: agonist 100 µM menthol, HEK-CR1-TRPM8 cells. The method, then:
All compounds were tested at two different concentrations (50 and 5 µM) on TRPM8 and TRPV1 channels stably expressed in HEK and SH-SY5Y cell lines, respectively. The agonist induced intracellular Ca^2+ signals were measured using a fluorescent Ca^2+ indicator, in the absence and in the presence of test compounds. […] The obtained results were compared to those of 68 (AMTB, TRPM8 antagonist) and ruthenium red (TRPV1 antagonist). The IC50 values for the assay on TRPM8 were also calculated.
For fluorescence assays, cells expressing TRP channels (SH-SY5Y-TRPV1 and HEKCR1-TRPM8) were seeded in 96-well plates (Corning Incorporated, Corning, NY) at a cell density of 40,000 cells 2 days before treatment. The day of treatment the medium was replaced with 100 µL of the dye loading solution Fluo-4 NW supplemented with probenecid 2.5 mM. Then the compounds dissolved in DMSO were added at the desired concentrations and the plate(s) were incubated at 37 °C in a humidified atmosphere of 5% CO2 for 60 minutes.
The fluorescence was measured using instrument settings appropriate for excitation at 485 nm and emission at 535 nm (POLARstar Omega BMG LABtech). […] The corresponding antagonist
(10 µM Ruthenium Red forTRPV1 and 10 µM 68 for TRPM8) was added for the blockade. The changes in fluorescence intensity were recorded during 15 cycles more. […] The blocking percentage was calculated as follow (Eq. 1):1 %TRPBlockedResponse=(1−Fo−Fi/FCo−FCi)∗100 where Fo is the fluorescence after the addition of menthol in the presence of the compound, Fi is the fluorescence before the addition of menthol in the presence of the compound, FCo is the fluorescence after the addition of menthol in the absence of the compound, FCi is the fluorescence before the addition of menthol in the absence of the compound. To guarantee that our results were useful we only used assays with a Z-factor higher than 0.5.
The statistical Z-factor to determine the quality of the HTS experiment as was calculated using the equation 2:2 Z‐factor=1−3∗(SDmax+SDmin)/Meanmax−Meanmin where: Meanmax is the mean of the maximum fluorescence in the presence of agonist, SDmax is the standard deviation of the maximum fluorescence in the presence of agonists, Meanmin is the mean of the maximum fluorescence in the presence of agonist and antagonist and SDmin is the standard deviation of the maximum fluorescence in the presence of agonist and antagonist.

T1 sequence (Q8R455 whole entry): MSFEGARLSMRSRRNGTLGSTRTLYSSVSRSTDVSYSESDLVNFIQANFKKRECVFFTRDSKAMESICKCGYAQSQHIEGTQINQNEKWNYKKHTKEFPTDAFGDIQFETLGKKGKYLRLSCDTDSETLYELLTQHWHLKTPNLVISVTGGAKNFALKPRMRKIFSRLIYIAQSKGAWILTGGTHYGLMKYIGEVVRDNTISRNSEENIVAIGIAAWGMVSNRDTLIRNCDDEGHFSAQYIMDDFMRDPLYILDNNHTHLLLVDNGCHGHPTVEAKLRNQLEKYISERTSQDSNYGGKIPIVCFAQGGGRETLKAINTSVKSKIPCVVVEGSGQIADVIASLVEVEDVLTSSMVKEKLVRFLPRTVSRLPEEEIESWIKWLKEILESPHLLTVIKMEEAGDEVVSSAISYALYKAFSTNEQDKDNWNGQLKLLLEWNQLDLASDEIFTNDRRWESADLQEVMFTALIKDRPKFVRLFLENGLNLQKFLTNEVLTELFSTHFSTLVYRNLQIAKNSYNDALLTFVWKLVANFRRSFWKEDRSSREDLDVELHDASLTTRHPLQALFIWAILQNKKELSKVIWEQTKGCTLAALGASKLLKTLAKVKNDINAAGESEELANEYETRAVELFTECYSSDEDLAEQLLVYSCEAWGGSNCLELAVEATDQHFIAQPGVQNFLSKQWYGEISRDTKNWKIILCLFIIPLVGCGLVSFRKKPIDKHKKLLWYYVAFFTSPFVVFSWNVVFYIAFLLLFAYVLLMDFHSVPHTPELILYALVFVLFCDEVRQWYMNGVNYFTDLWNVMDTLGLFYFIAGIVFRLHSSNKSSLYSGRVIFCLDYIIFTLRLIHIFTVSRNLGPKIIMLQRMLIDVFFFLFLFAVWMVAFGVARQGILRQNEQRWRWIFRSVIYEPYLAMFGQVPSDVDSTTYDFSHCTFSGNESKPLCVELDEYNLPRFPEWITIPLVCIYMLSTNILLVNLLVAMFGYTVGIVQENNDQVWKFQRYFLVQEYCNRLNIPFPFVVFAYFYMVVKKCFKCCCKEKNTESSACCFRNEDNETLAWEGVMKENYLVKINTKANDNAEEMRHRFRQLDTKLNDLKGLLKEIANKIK
NaV1.6, sequence (Q9UQD0 whole entry): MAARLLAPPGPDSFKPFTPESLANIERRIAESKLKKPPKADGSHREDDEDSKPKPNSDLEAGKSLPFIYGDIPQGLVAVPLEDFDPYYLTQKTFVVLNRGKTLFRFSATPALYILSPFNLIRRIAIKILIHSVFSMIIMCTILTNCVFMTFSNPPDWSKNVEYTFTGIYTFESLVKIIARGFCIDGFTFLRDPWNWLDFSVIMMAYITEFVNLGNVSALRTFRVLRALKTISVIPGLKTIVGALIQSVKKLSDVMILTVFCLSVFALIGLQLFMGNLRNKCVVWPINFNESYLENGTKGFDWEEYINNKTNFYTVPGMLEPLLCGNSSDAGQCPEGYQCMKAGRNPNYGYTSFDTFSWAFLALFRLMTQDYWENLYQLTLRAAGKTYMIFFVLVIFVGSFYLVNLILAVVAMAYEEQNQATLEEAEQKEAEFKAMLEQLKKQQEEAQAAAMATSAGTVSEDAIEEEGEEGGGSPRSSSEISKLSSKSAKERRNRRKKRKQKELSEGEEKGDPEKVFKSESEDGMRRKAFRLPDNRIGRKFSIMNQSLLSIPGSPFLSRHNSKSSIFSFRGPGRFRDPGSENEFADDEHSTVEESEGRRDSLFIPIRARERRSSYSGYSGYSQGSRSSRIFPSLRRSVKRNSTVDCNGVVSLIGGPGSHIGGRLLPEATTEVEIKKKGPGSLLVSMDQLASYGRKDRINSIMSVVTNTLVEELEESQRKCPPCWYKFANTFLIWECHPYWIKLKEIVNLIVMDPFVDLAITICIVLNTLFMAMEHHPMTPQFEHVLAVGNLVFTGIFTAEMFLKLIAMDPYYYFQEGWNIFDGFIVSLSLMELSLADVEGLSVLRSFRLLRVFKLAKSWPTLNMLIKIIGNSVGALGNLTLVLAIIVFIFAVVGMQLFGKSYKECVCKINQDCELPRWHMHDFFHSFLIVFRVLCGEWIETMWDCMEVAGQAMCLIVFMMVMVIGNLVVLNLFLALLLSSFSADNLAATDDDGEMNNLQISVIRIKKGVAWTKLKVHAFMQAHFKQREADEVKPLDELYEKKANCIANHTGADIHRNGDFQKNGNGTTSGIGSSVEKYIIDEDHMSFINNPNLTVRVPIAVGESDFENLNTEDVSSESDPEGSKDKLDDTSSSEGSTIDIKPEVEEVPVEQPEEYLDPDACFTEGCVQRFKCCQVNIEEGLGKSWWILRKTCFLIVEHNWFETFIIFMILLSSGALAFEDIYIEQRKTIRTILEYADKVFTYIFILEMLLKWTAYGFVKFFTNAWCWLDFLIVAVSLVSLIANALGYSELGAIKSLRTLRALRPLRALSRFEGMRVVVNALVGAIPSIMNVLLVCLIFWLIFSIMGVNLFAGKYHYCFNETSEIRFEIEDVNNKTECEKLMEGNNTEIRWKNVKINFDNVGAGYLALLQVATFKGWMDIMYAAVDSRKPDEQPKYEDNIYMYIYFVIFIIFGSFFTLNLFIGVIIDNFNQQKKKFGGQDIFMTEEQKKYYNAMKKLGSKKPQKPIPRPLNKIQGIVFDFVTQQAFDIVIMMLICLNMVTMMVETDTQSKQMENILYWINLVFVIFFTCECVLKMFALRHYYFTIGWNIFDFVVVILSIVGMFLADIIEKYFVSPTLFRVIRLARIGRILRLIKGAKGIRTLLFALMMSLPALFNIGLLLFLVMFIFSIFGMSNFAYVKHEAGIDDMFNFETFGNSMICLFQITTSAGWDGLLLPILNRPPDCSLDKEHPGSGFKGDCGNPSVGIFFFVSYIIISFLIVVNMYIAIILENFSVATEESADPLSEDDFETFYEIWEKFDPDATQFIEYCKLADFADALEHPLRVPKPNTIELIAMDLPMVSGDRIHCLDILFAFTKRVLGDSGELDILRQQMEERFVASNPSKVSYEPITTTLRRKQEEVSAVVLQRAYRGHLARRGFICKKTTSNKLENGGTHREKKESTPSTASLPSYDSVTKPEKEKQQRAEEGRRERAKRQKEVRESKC

As to `CC(C)(C)OC(=O)N[C@@H](CCN1C(=O)CC1(Cc1ccccc1)C(=O)OCc1ccccc1)C(=O)OCc1ccccc1` (stereo partly shown) [Compound 41, 4R,S-Benzyl-4-benzyloxycarbonyl-1-[(3′S-benzyloxycarbonyl-3-tert-butoxycarbonylamino-3′-benzyloxycarbonyl)prop-1′-yl]-2-oxoazetidine], on NaV1.6, the half-maximal inhibitory concentration (IC50) – broadly, the point on the concentration scale where inhibition reaches its midpoint – is over 1000 nM. On TRPM8 [1] (1 µM compound), the “effect on menthol-evoked TRPM8 current at 1 µM” value is listed as “almost totally absence of current” and the “effect on cold-evoked TRPM8 current” value is listed as “significant decrease in the current intensity”. Besides, on TRPM8 [1] (1 µM compound, depolarizing voltage +120 mV), the “reduction of voltage-mediated TRPM8 activity” value stood at 90 ± 2%. At TRPM8 [1] (1 µM compound, −60 mV), the “agonist activity (activation) on TRPM8” value is listed as “did not produce activation”. Further, the “reversibility of TRPM8 block” value on TRPM8 [1] (1 µM, menthol pulse four minutes after removal of compound) is listed as “reversible”. For the same compound, on TRPM8 [1] (−60 mV), the 50% inhibitory concentration (IC50) amounted to 46 nM and the “Hill coefficient nH” value was −1.5 ± 0.3. At TRPM8 [2] (5 µM compound), the “blocking effect against TRPM8 at 5 µM” value is reported as 95%. For the same compound, at TRPM8 [2], the “% Block TRPM8 50 µM” value was determined as 96.3 ± 1.6% and the half-inhibitory concentration (IC50) came to 420 nM.

Take `CC1C(=O)N(CC[C@H](NC(=O)OC(C)(C)C)C(=O)OCc2ccccc2)C1(Cc1ccccc1)C(=O)OCc1ccccc1` (stereo partly drawn) [Compound 45, 4R,S-Benzyl-4-benzyloxycarbonyl-1-[(3′S-benzyloxycarbonyl-3′-tert-butoxycarbonylamino)prop-1′-yl]-(3R,S)-methyl-2-oxoazetidine]: at NaV1.6, the IC50 was over 1000 nM. Further, on TRPM8 [1] (1 µM compound), the “effect on voltage-evoked TRPM8 outward currents” value was “reduce significantly”, the “effect on menthol-evoked TRPM8 current at 1 µM” value was “almost totally absence of current” and the “effect on cold-evoked TRPM8 current” value is given as “reduce significantly”. Further, at TRPM8 [1] (−60 mV), the IC50 is 82.9 nM and 83 nM; the “Hill coefficient nH” value is on record as −1.1 ± 0.2. At TRPM8 [2], the “% Block TRPM8 50 µM” value was found to be 100% and the IC50 was found to be 800 ± 1170 nM.
